Measurements taken from PubChem BioAssay (NCI).
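Compound exposure: 48 hours, 5 concentrations, 96-well plates. GI50 marks 50% less growth. TGI denotes the concentration required for complete inhibition of growth.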

How the values were obtained:
Experiment in all cases: growth of human tumour cells (NCI), 48 h
NCI-H522 lung = system: NCI-H522 lung
T-47D breast = system: T-47D breast
SR leukemia = system: SR leukemia
DU-145 prostate = system: DU-145 prostate
BT-549 breast = system: BT-549 breast
LXFL 529 NSCLC = system: LXFL 529 NSCLC
M19-MEL melanoma = system: M19-MEL melanoma
XF 498 CNS = system: XF 498 CNS
SNB-78 CNS = system: SNB-78 CNS
HOP-18 NSCLC = system: HOP-18 NSCLC
DMS 273 small cell lung = system: DMS 273 small cell lung
RXF-631 renal = system: RXF-631 renal
KM20L2 colon = system: KM20L2 colon
DMS 114 small cell lung = system: DMS 114 small cell lung
DLD-1 colon = system: DLD-1 colon

Q: How did the TGI (NCI-H522 lung) turn out when `CS/C(C#N)=C(\C#N)SC` was run?
A: Its TGI is 3.75 µM.

Q: And the TGI (T-47D breast)?
A: Its TGI is 26.2 µM.

Q: And the TGI (SR leukemia)?
A: Its TGI is 5.43 µM.

Q: What about the TGI (DU-145 prostate) of the same compound?
A: The TGI was 40.7 µM.

Q: How did the TGI (NCI-H522 lung) turn out when `Cc1cccc(O)c1-c1nnc(CCCCCCCCc2nnc(-c3c(C)cccc3O)n2N)n1N` was run?
A: Its TGI is 97.2 µM.

Q: What about the TGI (T-47D breast) of the same compound?
A: Its TGI is > 100 µM.

Q: What about the TGI (BT-549 breast) of the same compound?
A: The TGI was > 100 µM.

Q: And the TGI (SR leukemia)?
A: Its TGI is > 52.5 µM.

Q: What about the TGI (DU-145 prostate) of the same compound?
A: Its TGI is > 100 µM.

Q: For `c1ccc(CSc2ccccc2CN2CCN(Cc3ccccc3SCc3ccccc3)CCN(Cc3ccccc3SCc3ccccc3)CC2)cc1`, which TGI (NCI-H522 lung) is on record?
A: Its TGI is 1.76 µM.

Q: And the TGI (T-47D breast)?
A: Its TGI is 4.81 µM.

Q: What about the TGI (BT-549 breast) of the same compound?
A: Its TGI is 4.1 µM.

Q: And the TGI (DU-145 prostate)?
A: The TGI was 12.3 µM.

Q: What does the source list for `CCN1CCN(c2nc3ccccc3nc2C(=O)c2ccc(OC)cc2)CC1`?
A: TGI (NCI-H522 lung): > 100 µM; TGI (T-47D breast): > 100 µM; TGI (SR leukemia): 93.4 µM; TGI (DU-145 prostate): > 100 µM

Q: Which results are given for `c1ccc(CSC2(SCc3ccccc3)CCCC2)cc1`?
A: TGI (NCI-H522 lung): > 10 µM; TGI (T-47D breast): > 10 µM; TGI (SR leukemia): > 10 µM; TGI (DU-145 prostate): > 10 µM

Q: For `C[C@H]1C(=O)O[C@@H]1[C@H]1COC(C)(C)O1`, which TGI (BT-549 breast) is on record?
A: Its TGI is > 100 µM.

Q: And the TGI (SR leukemia)?
A: Its TGI is > 100 µM.

Q: With `COC(=O)C(=O)C(C(=O)C1=NS(=O)(=O)c2cc(S(N)(=O)=O)c(Cl)cc2N1)c1nc2ccc(C(=O)c3ccccc3)cc2[nH]c1=O` (stereo not drawn) as the compound, how does the TGI (LXFL 529 NSCLC) read?
A: The TGI was > 100 µM.

Q: And the TGI (M19-MEL melanoma)?
A: Its TGI is > 100 µM.

Q: What about the TGI (NCI-H522 lung) of the same compound?
A: The TGI was > 100 µM.

Q: What about the TGI (XF 498 CNS) of the same compound?
A: Its TGI is > 100 µM.

Q: And the TGI (SNB-78 CNS)?
A: The TGI was > 100 µM.

Q: What about the TGI (HOP-18 NSCLC) of the same compound?
A: Its TGI is > 100 µM.

Q: And the TGI (DMS 273 small cell lung)?
A: The TGI was > 100 µM.

Q: And the TGI (SR leukemia)?
A: Its TGI is > 100 µM.

Q: What about the TGI (RXF-631 renal) of the same compound?
A: The TGI was > 100 µM.

Q: What about the TGI (KM20L2 colon) of the same compound?
A: The TGI was > 100 µM.

Q: What does the source list for `[O-]c1c[n+](CCCC[n+]2cc([O-])on2)no1`?
A: TGI (NCI-H522 lung): > 100 µM; TGI (T-47D breast): > 100 µM; TGI (BT-549 breast): > 100 µM; TGI (DU-145 prostate): > 100 µM

Q: How did the TGI (NCI-H522 lung) turn out when `Nc1ccc(Oc2ccc(C3(c4ccc(Oc5ccc(N)cc5)cc4)C4CC5C6CC7CC5C3C(C7)C6C4)cc2)cc1` was run?
A: Its TGI is > 100 µM.

Q: And the TGI (BT-549 breast)?
A: Its TGI is > 100 µM.

Q: What about the TGI (SR leukemia) of the same compound?
A: Its TGI is > 100 µM.

Q: What about the TGI (DU-145 prostate) of the same compound?
A: The TGI was > 100 µM.

Q: How did the TGI (LXFL 529 NSCLC) turn out when `Nc1nc(Cl)cc(NCCCNc2cc(Cl)nc(N)n2)n1` was run?
A: Its TGI is > 100 µM.

Q: What about the TGI (DMS 114 small cell lung) of the same compound?
A: Its TGI is > 100 µM.

Q: And the TGI (M19-MEL melanoma)?
A: Its TGI is > 100 µM.

Q: And the TGI (DLD-1 colon)?
A: Its TGI is > 100 µM.

Q: What about the TGI (XF 498 CNS) of the same compound?
A: Its TGI is > 100 µM.

Q: What about the TGI (HOP-18 NSCLC) of the same compound?
A: Its TGI is > 100 µM.

Q: And the TGI (DMS 273 small cell lung)?
A: Its TGI is > 100 µM.

Q: And the TGI (SR leukemia)?
A: Its TGI is > 100 µM.

Q: What about the TGI (RXF-631 renal) of the same compound?
A: Its TGI is > 100 µM.

Q: And the TGI (KM20L2 colon)?
A: The TGI was > 100 µM.

Q: With `CN(C)CCCNC(=O)c1cc(NC(=O)c2cc(NS(=O)(=O)c3ccc4c(c3)C(=O)c3ccccc3C4=O)cn2C)cn1C` as the compound, how does the TGI (NCI-H522 lung) read?
A: Its TGI is > 100 µM.

Q: What about the TGI (T-47D breast) of the same compound?
A: Its TGI is > 100 µM.

Q: What about the TGI (BT-549 breast) of the same compound?
A: Its TGI is > 100 µM.

Q: And the TGI (SR leukemia)?
A: Its TGI is > 100 µM.

Q: And the TGI (DU-145 prostate)?
A: Its TGI is > 100 µM.

Q: For `Cc1ccc(-c2cc(-c3ccc(Cl)cc3)nc(/N=C3\C(=O)N(CN4CCOCC4)c4ccccc43)n2)cc1`, which TGI (NCI-H522 lung) is on record?
A: The TGI was 30.1 µM.

Q: And the TGI (T-47D breast)?
A: The TGI was > 100 µM.

Q: What about the TGI (BT-549 breast) of the same compound?
A: The TGI was 88.5 µM.

Q: What about the TGI (DU-145 prostate) of the same compound?
A: Its TGI is > 100 µM.

Q: What does the source list for `O=c1oc2ccccc2n1P(=O)(n1c(=O)oc2ccccc21)n1c(=O)oc2ccccc21`?
A: TGI (LXFL 529 NSCLC): > 100 µM; TGI (DMS 114 small cell lung): > 100 µM; TGI (M19-MEL melanoma): > 100 µM; TGI (DLD-1 colon): > 100 µM; TGI (NCI-H522 lung): > 100 µM; TGI (XF 498 CNS): > 100 µM; TGI (SNB-78 CNS): > 100 µM; TGI (DMS 273 small cell lung): > 100 µM; TGI (SR leukemia): > 100 µM; TGI (RXF-631 renal): > 100 µM; TGI (KM20L2 colon): > 100 µM

Q: `Cn1cc(-c2csc(-c3cn(C)c4ccc(Br)cc34)n2)c2cnccc21` was tested. Which GI50 (NCI-H522 lung) did it give?
A: The GI50 was 1.76 µM.

Q: And the TGI (NCI-H522 lung)?
A: The TGI was 3.44 µM.

Q: And the GI50 (DU-145 prostate)?
A: Its GI50 is 1.74 µM.

Q: What about the TGI (DU-145 prostate) of the same compound?
A: Its TGI is 3.17 µM.

Q: What does the source list for `CN1C(=O)CN2C(Cl)(Cl)C2(c2ccccc2F)c2cc([N+](=O)[O-])ccc21` (stereo not drawn)?
A: TGI (LXFL 529 NSCLC): > 100 µM; TGI (DMS 114 small cell lung): > 100 µM; TGI (M19-MEL melanoma): > 100 µM; TGI (DLD-1 colon): > 100 µM; TGI (NCI-H522 lung): > 100 µM; TGI (DMS 273 small cell lung): > 100 µM; TGI (SR leukemia): > 100 µM; TGI (KM20L2 colon): > 100 µM
